Numbering of substitutions follows the chain as printed. pEC50: −log10 of the molar value.

What all share (experiment): inside-out patch clamp, Xenopus oocytes
In general terms: Patch clamp records ionic current or voltage across a cell membrane.

In assay [1] the target is T1, HCN2 (Mus musculus, UniProt O88703).
T1 sequence (O88703 1-863): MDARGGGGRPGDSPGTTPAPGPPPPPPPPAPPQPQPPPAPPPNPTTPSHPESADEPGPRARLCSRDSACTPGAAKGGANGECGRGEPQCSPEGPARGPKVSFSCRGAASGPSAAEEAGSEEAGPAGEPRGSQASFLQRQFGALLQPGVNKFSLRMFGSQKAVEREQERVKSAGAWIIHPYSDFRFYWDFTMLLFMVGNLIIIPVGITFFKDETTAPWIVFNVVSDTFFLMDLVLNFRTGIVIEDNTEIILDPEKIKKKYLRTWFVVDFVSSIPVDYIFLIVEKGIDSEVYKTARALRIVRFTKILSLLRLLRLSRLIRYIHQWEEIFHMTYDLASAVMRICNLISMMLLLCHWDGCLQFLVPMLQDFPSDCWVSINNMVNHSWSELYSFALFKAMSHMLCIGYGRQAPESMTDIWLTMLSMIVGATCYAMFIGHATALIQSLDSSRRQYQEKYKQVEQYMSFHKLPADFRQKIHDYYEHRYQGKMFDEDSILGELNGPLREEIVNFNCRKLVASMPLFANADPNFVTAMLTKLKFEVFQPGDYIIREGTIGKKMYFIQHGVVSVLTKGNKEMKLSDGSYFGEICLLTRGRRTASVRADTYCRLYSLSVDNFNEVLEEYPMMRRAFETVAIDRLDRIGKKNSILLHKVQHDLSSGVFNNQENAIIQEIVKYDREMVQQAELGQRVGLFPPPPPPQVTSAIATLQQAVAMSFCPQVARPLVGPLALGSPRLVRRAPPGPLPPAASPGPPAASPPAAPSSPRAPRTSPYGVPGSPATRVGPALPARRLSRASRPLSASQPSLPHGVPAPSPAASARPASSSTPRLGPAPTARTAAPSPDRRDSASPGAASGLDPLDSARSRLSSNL
The format is cell-based.

Assay [2] addresses T1, HCN2. The format is cell-based. The source holds these as a separate data set.
For assay [3], the target named is T2, HCN2/FPN (Mus musculus, UniProt O88703, Q450F/E451P/K452N).
T2 sequence (O88703 1-863 Q450F/E451P/K452N): T1 sequence (O88703 1-863) with Q450F, E451P, K452N
The format is cell-based.

In assay [4] the target is T1, HCN2. The format is biochemical.

As to `CCCCCCCC(=O)OC[C@H](COP(=O)(O)O[C@H]1[C@H](O)[C@@H](O)[C@H](OP(=O)(O)O)[C@@H](OP(=O)(O)O)[C@H]1O)OC(=O)CCCCCCC` [diC8 PI(3,4)P2, dioctanoyl phosphatidylinositol 3,4-bisphosphate], in assay [1], the “inside-out patch clamp, Xenopus oocytes; shift in V1/2 at 25 μM” value is recorded as 12.3 mV. Turning to `CCCCCCCC/C=C\CCCCCCCC(=O)SCCNC(=O)CCNC(=O)[C@H](O)C(C)(C)COP(=O)(O)OP(=O)(O)OC[C@H]1O[C@@H](n2cnc3c(N)ncnc32)[C@H](O)[C@@H]1OP(=O)(O)O` [oleoyl CoA, Oleoyl CoA], the “inside-out patch clamp, Xenopus oocytes; shift in V1/2 at 1 μM” value in assay [2] was “+16.0 mV”. For the molecule “phosphatidylinositol 4,5-bisphosphate [native PI(4,5)P2]”, in assay [2], the “inside-out patch clamp, Xenopus oocytes; shift in V1/2 at 1 μM” value is listed as “+31.8 mV”. For `CCCCCCCC(=O)OC[C@H](COP(=O)(O)O[C@@H]1[C@H](O)[C@H](O)[C@@H](OP(=O)(O)O)[C@H](OP(=O)(O)O)[C@H]1O)OC(=O)CCCCCCC` [diC8 PI(4,5)P2, dioctanoyl phosphatidylinositol 4,5-bisphosphate], the “inside-out patch clamp, Xenopus oocytes; shift in V1/2 at 25 μM” value in assay [3] is recorded as “+13.9 mV”. In addition, in assay [4], the pEC50 is 4.96.

In the case of `CCCCCCCC(=O)OC[C@H](COP(=O)(O)O[C@H]1[C@H](O)[C@@H](O)[C@H](OP(=O)(O)O)[C@@H](O)[C@H]1O)OC(=O)CCCCCCC` [diC8 PI(4)P, dioctanoyl phosphatidylinositol 4-phosphate], the “inside-out patch clamp, Xenopus oocytes; shift in V1/2 at 25 μM” value in assay [1] was 7.5 mV.

`CCCCCCCC(=O)OC[C@H](COP(=O)(O)O[C@H]1[C@H](O)[C@@H](OP(=O)(O)O)[C@H](OP(=O)(O)O)[C@@H](OP(=O)(O)O)[C@H]1O)OC(=O)CCCCCCC` [diC8 PI(3,4,5)P3, dioctanoyl phosphatidylinositol 3,4,5-trisphosphate]: the “inside-out patch clamp, Xenopus oocytes; shift in V1/2 at 25 μM” value in assay [1] is on record as 9.3 mV.

As usually defined, the pEC50 is the negative decadic logarithm of the EC50, by convention in mol/L. A low value points to a high EC50.

The values are drawn from paper PMC2151583 (The Journal of General Physiology, 2006).
